Assay [1] relates to CC49-TCO. In words: Ex vivo blocking assay: blocking of [111In]Tz-Tg binding to CC49-TCO in LS174T tumor xenografts. Details: species or system nude BALB/c mice. As to conditions: change in tumor uptake of [111In]Tz-Tg 22 h p.i.; Tz administered 1 h prior; normalized to non-blocked control; mean from n = 3 mice/group. The protocol:
FIG. 3 show a schematic display of the blocking assay. The blocking effect of non-radiolabeled Tz was determined as the change in tumor uptake of [111 1n]Tz-Tg 22 h p.i. Each Tz was administered 1 h prior to [111 1n]Tz-Tg and the uptake normalized to a group of animals were no blocking was performed (control).
The inventors have recently developed a blocking assay that allows to assess the in vivo ligation performance of unlabeled tetrazine derivatives. This assay omits time-consuming development of radiolabeled tetrazines for every ligand to be tested. In this assay, binding of [^111In]Tz-Tg (see structure in example 7), a literature described pretargeted imaging agent, is blocked in vivo to the pretargeting vector CC49-TCO (described in Stéen, J.; Jørgensen, J. T.; Christoph, D.; Battisti, U. M.; Nørregaard, K.; Edem, P.; Bratteby, K.; Shalgunov, V.; Martin, W.; Svatunek, D.; Poulie, C. B. M.; Hvass, L.; Simon, M.; Thomas, W.; Rossin, R.; Robillard, M.; Kristensen, J. L.; Mikula, H.; Kjaer, A.; Herth, M. Lipophilicity and Click Reactivity Determine the Performance of Bioorthogonal Tetrazine Tools in Pretargeted in Vivo Chemistry; 2020 Dec. 24, 2020.), which was administered 72 h prior. The blocking effect of the unlabeled tetrazine derivatives is afterwards quantified via an ex vivo biodistribution study and normalized to the binding of [^111In]Tz-Tg determined without any blocking.
All animal studies were approved by the Danish Animal Welfare Council, ministry of Justice. Five weeks old female nude BALB/c mice (Charles River, Sulzfeld, Germany) were allowed to acclimatize for one week with access to water and chow ad libitum. Human colon cancer cell line (LS174T; obtained from ATCC) was cultured in minimum essential medium (MEM) supplemented with 10% fetal bovine serum, 1% L-glutamine, 1% sodium pyruvate, 1% non-essential amino acids, and 1% penicillin-streptomycin at 37° C. and 5% CO2. Cells were harvested by trypsinization at a confluence of 70-90% and subcutaneous tumors were established in the left flank of the 6 weeks old animals by inoculation of 5×10^6 LS174T cells resuspended in sterile PBS (100 μL) and allowed to grow for 7-10 days. Tumors were measured using a caliper and the volume calculated using the formula volume=1/2 (length×width 2).
Tumor-bearing animals were matched in groups based on their tumor volume (tumor volumes of ˜100-300 mm^3, n=3 in each group) and were administered 100 μg/100 μL of CC49-TCO (100 μg/100 μL, ˜7 TCO/mAb) per mouse. After 3 days, animals were injected with non-radioactive Tz (10-20 nmol). After 1 h, they were administered with IniTz-Tg (˜13 MBq/100 μL, 1-2 nmol) via the tail vein. [^111In]Tz-Tg was obtained and radiolabeled as previously described in Borjesson, P. K.; Jauw, Y. W.; de Bree, R.; Roos, J. C.; Castelijns, J. A.; Leemans, C. R.; van Dongen, G. A.; Boellaard, R. Radiation dosimetry of 89 Zr-labeled chimeric monoclonal antibody U36 as used for immuno-PET in head and neck cancer patients. J Nucl Med 2009, 50, 1828-36. The mice were euthanized after 22 h and tumor, blood, heart, lung, liver, spleen, kidney, and muscle were resected. All tissues were weighted, and the radioactivity measured in a gamma counter (Wizard2, Perkin Elmer) and data was corrected for decay, tissue weight and injected amount of radioactivity. FIG. 3 illustrate the workflow of the blocking assay.

Assay [2] can be described thus: Reaction kinetics of tetrazines with TCO (stopped-flow, pseudo-first-order). It is filed as physicochemical. As to conditions: Second order rate constants with TCO at 37° C. in PBS. The procedure: Reaction kinetics of tetrazines with standard TCO were determined using pseudo-first-order measurements with an excess of the TCO compound in PBS (pH=7.4) at 37.0±0.1° C. following the decrease of tetrazine absorbance at 535 nm. Measurements were performed in triplicates using an SX20 stopped-flow photometer (Applied Photophysics, UK) equipped with a 535 nm LED light source. Data analysis was performed using Prism 6 (Graphpad) to determine the observed rate constants which were converted into secondorder rate constants through dividing by the TCO concentration.
Second-order rate constants for the reaction with TCO in PBS at 37° C. were determined by pseudo-first order measurements in a SX20 stopped flow photometer (Applied Photophysics).

Take `O=C(O)CN(CC(=O)O)Cc1ccc(-c2nnc(-c3ccc(OCCF)cn3)nn2)nc1` [Tz-Tg, reference compound]: the “Normalized Tumor blocking effect” value in assay [1] was 99. Moreover, the Rate constant in assay [2] came to 73742 M⁻¹ s⁻¹.

The values are drawn from patent publication US20240182382A1, “ALIPHATIC 18F-RADIOLABELING OF A TETRAZINE PRECURSOR” (UNIVERSITY OF COPENHAGEN, priority 2021, published 2024).
